Results from patent US12448377B2, “Heterocyclic compound” (Takeda Pharmaceutical Company Limited, priority 2019, dated 2025).

Molecular target: T1, human orexin type 2 receptor (Homo sapiens, UniProt O43614)
T1 construct: expressed in transfected cells
T1 sequence (O43614 1-444): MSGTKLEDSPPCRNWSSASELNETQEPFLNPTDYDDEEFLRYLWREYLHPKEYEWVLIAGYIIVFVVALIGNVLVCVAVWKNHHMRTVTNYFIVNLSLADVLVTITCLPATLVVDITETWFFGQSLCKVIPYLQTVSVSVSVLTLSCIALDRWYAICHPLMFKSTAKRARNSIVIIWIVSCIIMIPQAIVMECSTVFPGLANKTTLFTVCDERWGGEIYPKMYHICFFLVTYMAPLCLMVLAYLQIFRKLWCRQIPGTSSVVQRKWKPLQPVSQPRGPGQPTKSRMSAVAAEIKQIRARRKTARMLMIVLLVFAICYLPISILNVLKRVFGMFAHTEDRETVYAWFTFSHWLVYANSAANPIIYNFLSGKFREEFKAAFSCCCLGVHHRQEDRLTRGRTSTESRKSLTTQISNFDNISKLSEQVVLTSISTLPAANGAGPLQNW
Experiment: Measurement of orexin type 2 receptor agonist activity (calcium fluorescence, CHO cells forcibly expressing human OX2 receptor)
Format: cell-based
Details: compound at 3 μM, DMSO = 0%, orexin A (human) 10 nM = 100%
Description: To obtain a cell clone stably expressing human orexin type 2 receptor, human orexin type 2 receptor cDNA was inserted into pcDNA3.1(+) plasmid vector (Invitrogen), and a plasmid DNA for expression of human orexin type 2 receptor (pcDNA3.1(+)/hOX2R) was cloned. The plasmid DNA was introduced into CHO-K1 cell by an electroporation method, and human orexin type 2 receptor-expressing clonal cells were obtained by limiting dilution method using G418 drug resistance as a selection marker.
CHO cells forcibly expressing human OX2 receptor were seeded in each well of 384 well black transparent bottom plate (BD Falcon) at 10,000 cells/well, and cultured for one day in a 5% CO2 incubator at 37° C. After removal of the medium in the cell plate, assay buffer A containing a calcium indicator (HBSS (Thermo Fisher Scientific), 20 mM HEPES (Thermo Fisher Scientific), 0.1% BSA (Sigma-Aldrich), 2.5 μg/mL Fluo-4 AM (DOJINDO Chemical), 0.08% Pluronic F127 (DOJINDO Chemical), 1.25 mM probenecid (DOJINDO Chemical)) was added thereto at 30 μL/well. The plate was stood for 30 min in a 5% CO2 incubator at 37° C., and further stood at room temperature for 30 min. A test compound prepared by diluting with assay buffer B (HBSS, 20 mM HEPES, 0.1% BSA) was added thereto at 10 μL/well, and the fluorescence value was measured by FDSSμCELL (Hamamatsu Photonics K.K.) every one sec for 1 min, and thereafter every two sec for 1 min 40 sec. The activity (%) of the test compound was calculated assuming that variation in the fluorescence value when DMSO was added instead of the test compound was 0%, and variation in the fluorescence value when orexin A (human) (PEPTIDE INSTITUTE, INC.) was added at the final concentration of 10 nM was 100%.

For `Cc1ccc2n(c1=O)C(COC1CCC(C(C)C)CC1)C(NS(=O)(=O)N(C)C)CC2` (racemic) [Example 28, rac-N,N-dimethyl-N′-[(3S,4R)-7-methyl-6-oxo-4-({[(1s,4S)-4-(propan-2-yl)cyclohexyl]oxy}methyl)-1,3,4,6-tetrahydro-2H-quinolizin-3-yl]sulfuric diamide], the “OX2R agonist activity (3 μM, %)” value was 92%.

`Cc1ccc2n(c1=O)C(COC1CCC(c3ccccc3)CC1)C(NS(=O)(=O)N(C)C)CC2` (racemic) [Example 29, rac-N,N-dimethyl-N′-[(3S,4R)-7-methyl-6-oxo-4-({[(1s,4S)-4-phenylcyclohexyl]oxy}methyl)-1,3,4,6-tetrahydro-2H-quinolizin-3-yl]sulfuric diamide] was tested, and the “OX2R agonist activity (3 μM, %)” value was 83%.

With `Cc1ccc2n(c1=O)C(COC1CCC(C(C)(C)C)CC1)C(NS(=O)(=O)N(C)C)CC2` (racemic) [Example 30, rac-N′-[(3S,4R)-4-({[(1s,4S)-4-tert-butylcyclohexyl]oxy}methyl)-7-methyl-6-oxo-1,3,4,6-tetrahydro-2H-quinolizin-3-yl]-N,N-dimethylsulfuric diamide] the “OX2R agonist activity (3 μM, %)” value was 94%.

`Cc1ccccc1C1CCC(OCC2C(NS(=O)(=O)N(C)C)CCc3ccc(C)c(=O)n32)CC1` (racemic) [Example 31, rac-N,N-dimethyl-N′-[(3S,4R)-7-methyl-4-({[(1s,4S)-4-(2-methylphenyl)cyclohexyl]oxy}methyl)-6-oxo-1,3,4,6-tetrahydro-2H-quinolizin-3-yl]sulfuric diamide] was tested, and the “OX2R agonist activity (3 μM, %)” value was 89%.

In the case of `Cc1cccc(C2CCC(OCC3C(NS(=O)(=O)N(C)C)CCc4ccc(C)c(=O)n43)CC2)c1` (racemic) [Example 32, rac-N,N-dimethyl-N′-[(3S,4R)-7-methyl-4-({[(1s,4S)-4-(3-methylphenyl)cyclohexyl]oxy}methyl)-6-oxo-1,3,4,6-tetrahydro-2H-quinolizin-3-yl]sulfuric diamide], the “OX2R agonist activity (3 μM, %)” value was 81%.

In the case of `Cc1ccc(C2CCC(OCC3C(NS(C)(=O)=O)CCc4ccc(C)c(=O)n43)CC2)cc1` (racemic) [Example 33, rac-N-[(3S,4R)-7-methyl-4-({[(1s,4S)-4-(4-methylphenyl)cyclohexyl]oxy}methyl)-6-oxo-1,3,4,6-tetrahydro-2H-quinolizin-3-yl]methanesulfonamide], the “OX2R agonist activity (3 μM, %)” value was 78%.

In the case of `CCS(=O)(=O)NC1CCc2ccc(C)c(=O)n2C1COC1CCC(c2ccc(C)cc2)CC1` (racemic) [Example 34, rac-N-[(3S,4R)-7-methyl-4-({[(1s,4S)-4-(4-methylphenyl)cyclohexyl]oxy}methyl)-6-oxo-1,3,4,6-tetrahydro-2H-quinolizin-3-yl]ethanesulfonamide], the “OX2R agonist activity (3 μM, %)” value was 78%.

In the case of `Cc1ccc(C2CCC(OCC3C(NS(=O)(=O)N(C)C)CCc4ccc(C)c(=O)n43)CC2)cc1` (racemic) [Example 35, rac-N,N-dimethyl-N′-[(3S,4R)-7-methyl-4-({[(1s,4S)-4-(4-methylphenyl)cyclohexyl]oxy}methyl)-6-oxo-1,3,4,6-tetrahydro-2H-quinolizin-3-yl]sulfuric diamide], the “OX2R agonist activity (3 μM, %)” value was 88%.

With `Cc1ccc(C2CCC(OCC3C(NS(=O)(=O)C4CC4)CCc4ccc(C)c(=O)n43)CC2)cc1` (racemic) [Example 36, rac-N-[(3S,4R)-7-methyl-4-({[(1s,4S)-4-(4-methylphenyl)cyclohexyl]oxy}methyl)-6-oxo-1,3,4,6-tetrahydro-2H-quinolizin-3-yl]cyclopropanesulfonamide] the “OX2R agonist activity (3 μM, %)” value was 84%.

In the case of `Cc1ccc2n(c1=O)C(COC1CCC(C(F)(F)F)CC1)C(NS(C)(=O)=O)CC2` (racemic) [Example 37, rac-N-[(3S,4R)-7-methyl-6-oxo-4-({[(1s,4S)-4-(trifluoromethyl)cyclohexyl]oxy}methyl)-1,3,4,6-tetrahydro-2H-quinolizin-3-yl]methanesulfonamide], the “OX2R agonist activity (3 μM, %)” value was 94%.

For `CCS(=O)(=O)NC1CCc2ccc(C)c(=O)n2C1COC1CCC(C(F)(F)F)CC1` (racemic) [Example 38, rac-N-[(3S,4R)-7-methyl-6-oxo-4-({[(1s,4S)-4-(trifluoromethyl)cyclohexyl]oxy}methyl)-1,3,4,6-tetrahydro-2H-quinolizin-3-yl]ethanesulfonamide], the “OX2R agonist activity (3 μM, %)” value was 88%.

`Cc1ccc2n(c1=O)C(COC1CCC(c3ccc(F)cc3)CC1)C(NS(C)(=O)=O)CC2` (racemic) [Example 40, rac-N-[(3S,4R)-4-({[(1s,4S)-4-(4-fluorophenyl)cyclohexyl]oxy}methyl)-7-methyl-6-oxo-1,3,4,6-tetrahydro-2H-quinolizin-3-yl]methanesulfonamide] was tested, and the “OX2R agonist activity (3 μM, %)” value was 89%.

In the case of `Cc1ccc2n(c1=O)C(COC1CCC(c3ccccc3F)CC1)C(NS(=O)(=O)C1CC1)CC2` (racemic) [Example 45, rac-N-[(3S,4R)-4-({[(1s,4S)-4-(2-fluorophenyl)cyclohexyl]oxy}methyl)-7-methyl-6-oxo-1,3,4,6-tetrahydro-2H-quinolizin-3-yl]cyclopropanesulfonamide], the “OX2R agonist activity (3 μM, %)” value was 95%.

For `CCC1CCC(OCC2C(NS(C)(=O)=O)CCc3c(C)cc(C)c(=O)n32)CC1` (racemic) [Example 48, rac-N-[(3S,4R)-4-({[(1s,4S)-4-ethylcyclohexyl]oxy}methyl)-7,9-dimethyl-6-oxo-1,3,4,6-tetrahydro-2H-quinolizin-3-yl]methanesulfonamide], the “OX2R agonist activity (3 μM, %)” value was 95%.

`Cc1ccc2n(c1=O)C(COC1CCC(C(F)F)CC1)C(NS(C)(=O)=O)CC2` (racemic) [Example 55, N-[(3SR,4RS)-4-({[4-(difluoromethyl)cyclohexyl]oxy}methyl)-7-methyl-6-oxo-1,3,4,6-tetrahydro-2H-quinolizin-3-yl]methanesulfonamide] was tested, and the “OX2R agonist activity (3 μM, %)” value was 88%.

In the case of `COC(C)C1CCC(OCC2C(NS(C)(=O)=O)CCc3ccc(C)c(=O)n32)CC1` (racemic) [Example 56, N-[(3SR,4RS)-4-({[(1s,4S)-4-(1-methoxyethyl)cyclohexyl]oxy}methyl)-7-methyl-6-oxo-1,3,4,6-tetrahydro-2H-quinolizin-3-yl]methanesulfonamide], the “OX2R agonist activity (3 μM, %)” value was 84%.

In the case of `CCC(O)C1CCC(OCC2C(NS(C)(=O)=O)CCc3ccc(C)c(=O)n32)CC1` (racemic) [Example 58, N-[(3SR,4RS)-4-({[4-(1-hydroxypropyl)cyclohexyl]oxy}methyl)-7-methyl-6-oxo-1,3,4,6-tetrahydro-2H-quinolizin-3-yl]methanesulfonamide], the “OX2R agonist activity (3 μM, %)” value was 95%.

In the case of `CCOC1CCC(OCC2C(NS(C)(=O)=O)CCc3ccc(C)c(=O)n32)CC1` (racemic) [Example 59, rac-N-[(3S,4R)-4-({[(1s,4S)-4-ethoxycyclohexyl]oxy}methyl)-7-methyl-6-oxo-1,3,4,6-tetrahydro-2H-quinolizin-3-yl]methanesulfonamide], the “OX2R agonist activity (3 μM, %)” value was 93%.

`Cc1ccc2n(c1=O)C(COC1CCC(OC(C)C)CC1)C(NS(C)(=O)=O)CC2` (racemic) [Example 61, rac-N-{(3S,4R)-7-methyl-6-oxo-4-[({(1s,4S)-4-[(propan-2-yl)oxy]cyclohexyl}oxy)methyl]-1,3,4,6-tetrahydro-2H-quinolizin-3-yl)methanesulfonamide] was tested, and the “OX2R agonist activity (3 μM, %)” value was 103%.

`COC(C)(C)C1CCC(OCC2C(NS(C)(=O)=O)CCc3ccc(C)c(=O)n32)CC1` (racemic) [Example 74, rac-N-[(3S,4R)-4-(([(1s,4S)-4-(2-methoxypropan-2-yl)cyclohexyl]oxy)methyl)-7-methyl-6-oxo-1,3,4,6-tetrahydro-2H-quinolizin-3-yl]methanesulfonamide] was tested, and the “OX2R agonist activity (3 μM, %)” value was 95%.

For `CCCCCC1CCC(OCC2C(NS(=O)(=O)C3CC3)CCc3ccc(C)c(=O)n32)CC1` (racemic) [Example 76, rac-N-[(3S,4R)-7-methyl-6-oxo-4-({[(1r,4S)-4-pentylcyclohexyl]oxy}methyl)-1,3,4,6-tetrahydro-2H-quinolizin-3-yl]cyclopropanesulfonamide], the “OX2R agonist activity (3 μM, %)” value was 93%.

With `CCCCC1CCC(OCC2C(NS(C)(=O)=O)CCc3ccc(C)c(=O)n32)CC1` (racemic) [Example 80, rac-N-[(3S,4R)-4-({[(1r,4S)-4-butylcyclohexyl]oxy}methyl)-7-methyl-6-oxo-1,3,4,6-tetrahydro-2H-quinolizin-3-yl]methanesulfonamide] the “OX2R agonist activity (3 μM, %)” value was 99%.
